Measurements taken from patent US20180296530A1, “METHOD FOR TREATING ATOPIC DERMATITIS” (priority 2015, published 2018).

Columns and labels:
[1] = system: Patients aged 1 to 18 years with physician-diagnosed AD; test: Clinical trial: polysomnography in a subgroup; format: in vivo, human; conditions: melatonin vs placebo, P>0.05
Method: Sleep was evaluated by actigraphy (Mini-Mitter Actiwatch; Philips-Respironics). Each participant wore the actigraphic device on the nondominant wrist for 3 consecutive nights starting 3 nights before each treatment period and for the last 3 nights of each treatment period. In a subgroup of patients who offered consent, polysomnography was performed on the night before the first day and on the last night of each treatment period.

serum total IgE [2] = test: Example 5: serum IgE in DNCB-induced AD mouse model; format: in vivo, Balb/c mice; conditions: 5% melatonin treatment compared with the DNCB-stimulated group, p=0.02, Day 20
Method: (§1) The protocol for establishing an AD mouse model in this Example was modified from those described previously. Briefly, referring to FIG. 4, DNCB-induced AD mouse model was prepared by the repeated applications of 20 μL of 1% DNCB in acetone/olive oil (4:1) to the outer and inner surfaces of mouse ears and 100 μL of the same solution to the shaved back skin once on days 1, 2, and 3. Mice of Control group were treated with the identical volumes of vehicle.
(§2) The DNCB-sensitized mice were randomly assigned to one of three groups: DNCB (Positive control), DNCB+3% topical melatonin (Treatment: low-dose), DNCB+5% topical melatonin (Treatment: high-dose). Each group (including Control group) consisted of 5 mice. From days 9 to 19, sensitized mice were challenged by applying 0.5% DNCB to the skin surfaces. For the two groups treated with topical melatonin groups, 0.3 mg of topical melatonin ointment (3% or 5% melatonin in Vaseline) was given together with DNCB during the challenge period. […]
(§3) Blood and dorsal skin of each mouse were collected on the last day of the experiment (Day 20) and stored at −80° C. until use. Serum IgE levels were measured using the ImmunoCAP fluorescence enzyme immunoassay (Phadia AB, Sweden) according to the manufacturer's instructions. The dorsal skin mRNA expression of the cytokines IL-4, IL-13, and IL-17 were measured by RT-PCR.

IL-4 = test: Example 5: dorsal skin IL-4 mRNA by RT-PCR; format: in vivo, Balb/c mice
Method: as §1, §2, §3

IL-17 = test: Example 5: dorsal skin IL-17 mRNA by RT-PCR; format: in vivo, Balb/c mice
Method: as §1, §2, §3

serum total IgE [3] = test: Example 6: serum IgE in DNCB-induced AD mouse model; format: in vivo, Balb/c mice
Method: as §3
The protocol for establishing an AD mouse model in this Example was modified from those described previously. Briefly, referring to FIG. 12, DNCB-induced AD mouse model was prepared by the repeated applications of 20 μL of 1% DNCB in acetone/olive oil (4:1) to the outer and inner surfaces of mouse ears and 100 μL of the same solution to the shaved back skin once on days 1 and 4. Mice of Control group were treated with the identical volumes of vehicle.
The DNCB-sensitized mice were randomly assigned to one of four groups: DNCB, DNCB+0.1% topical melatonin, DNCB+1% topical melatonin, DNCB+8% topical melatonin. Each group (including Control group) consisted of 3 mice. On days 8 and 11, sensitized mice was challenged by applying 0.2% DNCB to the skin surfaces. For the three groups treated with topical melatonin groups, 0.1 mg of topical melatonin cream was given twice a day from day 1 to day 14. […]
The serum IgE levels were measured on the last day of the experiment (Day 15) in the same manner as those described in Example 5.

[4] = Clinical trial: nocturnal urinary 6-sulfatoxymelatonin by ELISA; format: in vivo, human; conditions: after treatment with melatonin compared with placebo, P<0.001
Method: The first urine sample on the morning after each actigraphic examination was obtained. Levels of urinary 6-sulfatoxymelatonin were assayed by enzyme-linked immunosorbent assay with a commercialized kit (IBL International GmbH) and were used to represent the melatonin level throughout the previous night.

[5] = system: DNCB-induced AD mouse model; test: Example 5: histological examination of skin (H&E, toluidine blue, anti-CD3); format: in vivo, Balb/c mice; conditions: for Cumulative histological scores: positive control 14.8 ± 2.4; for Hyperplasia, epidermis and follicular epithelium, slight to moderate/severe: incidence / Hyperplasia, sebaceous gland and hair follicle, dermis and subcutis, slight to moderate: incidence / Inflammation, neutrophil, lymphocyte and mast cell, epidermis, dermis and subcutis, minimal to severe/high: incidence / Infundibular hyperkeratosis, hair follicle, dermis, minimal to slight: incidence / Necrosis, epidermis, slight: incidence / Pustule, epidermis, slight: incidence / Serocellular crust/parakeratosis, epidermis, slight: incidence / Vacuolization, epidermis, minimal to slight: incidence: skin, Day 20, 5 mice
Method: as §1
The DNCB-sensitized mice were randomly assigned to one of three groups: DNCB (Positive control), DNCB+3% topical melatonin (Treatment: low-dose), DNCB+5% topical melatonin (Treatment: high-dose). Each group (including Control group) consisted of 5 mice. From days 9 to 19, sensitized mice were challenged by applying 0.5% DNCB to the skin surfaces. For the two groups treated with topical melatonin groups, 0.3 mg of topical melatonin ointment (3% or 5% melatonin in Vaseline) was given together with DNCB during the challenge period. For DNCB group, 0.3 mg of Vaseline was given together with DNCB during the challenge period. For Control group, 0.3 mg of Vaseline was given from days 9 to 19. This experiment was ended at Day 20.
At the end of the experiment (Day 20), all the experimental animals were subjected to euthanization by carbon dioxide and the skin samples were collected for subsequent immunological and histological examinations. The skin of each mouse were fixed with 10% neutral-buffered formalin, and embedded in paraffin. Then, 4-μm-thick sections were cut and transferred onto slides. Deparaffinized skin sections were stained with hematoxylin and eosin (H&E) before they were examined at 200× magnification for evaluation of edema and polymorphonuclear leukocytes (PMN) number. To detect mast cell infiltration, deparaffinized skin sections were stained with toluidine blue. Polyclonal rabbit antibody against CD3 was used to stain T cells. The numbers of mast cells and T cells per 10 high power fields (HPF) were counted.
Further, degree of histopathological lesions of skin from each mouse was graded from one to five depending on severity: 1=minimal (<1%); 2=slight (1-25%); 3=moderate (26-50%); 4=moderate/severe (51-75%); and 5=severe/high (76-100%).

[6] = 5% melatonin treatment compared with 3% melatonin treatment
[7] = Treatment (high-dose): DNCB+5% topical melatonin, mean±SD, graded one to five
[8] = Treatment (high-dose): DNCB+5% topical melatonin
[9] = Treatment (low-dose): DNCB+3% topical melatonin, mean±SD, graded one to five
[10] = Treatment (low-dose): DNCB+3% topical melatonin

COc1ccc2[nH]cc(CCNC(C)=O)c2c1 [Melatonin, melatonin]
effect on the stages of sleep and limb movement [1]: did not have a significantly different effect
serum total IgE level (serum total IgE [2]): significantly reduced
skin mRNA expression of IL-4, dose-response (IL-4; [6]): decreased more
skin mRNA expression of IL-4 (IL-4; after topical melatonin treatment (3% or 5%), FIG. 11A): decreased
skin mRNA expression of IL-17, dose-response (IL-17; [6]): decreased more
skin mRNA expression of IL-17 (IL-17; after topical melatonin treatment (3% or 5%), FIG. 11B): decreased
serum total IgE levels (serum total IgE [3]; 8% topical melatonin treatment, FIG. 15): lowered the total serum IgE most
serum total IgE levels (serum total IgE [3]; after topical melatonin treatment (0.1%, 1%, 8%), dose-response relationship, FIG. 15, Day 15): reduced
Nocturnal urinary 6-sulfatoxymelatonin levels [4]: significantly increased
pathology scoring vs DNCB group ([5]; 3% melatonin, p=0.04): significant improvement
number of anti-CD3 positive cells per 10 HPF ([5]; 3% topical melatonin compared with DNCB group, p=0.03): significantly reduced
pathology scoring vs DNCB group ([5]; 5% melatonin, p=0.02): significant improvement
number of anti-CD3 positive cells per 10 HPF ([5]; 5% topical melatonin compared with DNCB group, p=0.0007): significantly reduced
Hyperplasia, epidermis and follicular epithelium, slight to moderate/severe: lesion score [5, 7]: 2.0 ± 0.0
Hyperplasia, sebaceous gland and hair follicle, dermis and subcutis, slight to moderate: lesion score [5, 7]: 2.4 ± 0.5
Inflammation, neutrophil, lymphocyte and mast cell, epidermis, dermis and subcutis, minimal to severe/high: lesion score [5, 7]: 3.8 ± 0.4
Necrosis, epidermis, slight: lesion score [5, 7]: 0.4 ± 0.9
Serocellular crust/parakeratosis, epidermis, slight: lesion score [5, 7]: 2.0 ± 0.0
Vacuolization, epidermis, minimal to slight: lesion score [5, 7]: 0.8 ± 0.4
Cumulative histological scores ([5]; Treatment (high-dose): DNCB+5% topical melatonin, mean±SD): 11.4 ± 1.1
Hyperplasia, epidermis and follicular epithelium, slight to moderate/severe: incidence [5, 8]: 5/5
Hyperplasia, sebaceous gland and hair follicle, dermis and subcutis, slight to moderate: incidence [5, 8]: 5/5
Inflammation, neutrophil, lymphocyte and mast cell, epidermis, dermis and subcutis, minimal to severe/high: incidence [5, 8]: 5/5
Infundibular hyperkeratosis, hair follicle, dermis, minimal to slight: incidence [5, 8]: 0
Necrosis, epidermis, slight: incidence [5, 8]: 1/5
Pustule, epidermis, slight: incidence [5, 8]: 0
Serocellular crust/parakeratosis, epidermis, slight: incidence [5, 8]: 5/5
Vacuolization, epidermis, minimal to slight: incidence [5, 8]: 4/5
Hyperplasia, epidermis and follicular epithelium, slight to moderate/severe: lesion score [5, 9]: 2.4 ± 0.5
Hyperplasia, sebaceous gland and hair follicle, dermis and subcutis, slight to moderate: lesion score [5, 9]: 2.0 ± 0.0
Inflammation, neutrophil, lymphocyte and mast cell, epidermis, dermis and subcutis, minimal to severe/high: lesion score [5, 9]: 3.8 ± 0.4
Infundibular hyperkeratosis, hair follicle, dermis, minimal to slight: lesion score [5, 9]: 0.8 ± 0.8
Serocellular crust/parakeratosis, epidermis, slight: lesion score [5, 9]: 2.0 ± 0.0
Vacuolization, epidermis, minimal to slight: lesion score [5, 9]: 0.6 ± 0.5
Cumulative histological scores ([5]; Treatment (low-dose): DNCB+3% topical melatonin, mean±SD): 11.6 ± 1.8
Hyperplasia, epidermis and follicular epithelium, slight to moderate/severe: incidence [5, 10]: 5/5
Hyperplasia, sebaceous gland and hair follicle, dermis and subcutis, slight to moderate: incidence [5, 10]: 5/5
Inflammation, neutrophil, lymphocyte and mast cell, epidermis, dermis and subcutis, minimal to severe/high: incidence [5, 10]: 5/5
Infundibular hyperkeratosis, hair follicle, dermis, minimal to slight: incidence [5, 10]: 3/5
Necrosis, epidermis, slight: incidence [5, 10]: 0
Pustule, epidermis, slight: incidence [5, 10]: 0
Serocellular crust/parakeratosis, epidermis, slight: incidence [5, 10]: 5/5
Vacuolization, epidermis, minimal to slight: incidence [5, 10]: 3/5
mast cell infiltration (toluidine blue) ([5]; after melatonin treatment, FIG. 8): decreased
H&E staining of the skin ([5]; both the 3% and 5% melatonin treatment group, FIG. 6): improved epidermal hyperplasia and less infiltration of lymphocytes
